Holding throughout (experiment): in vitro antibacterial screening, MIC by microtitration in TSB
Holding throughout (format): cell-based

One experiment relates to Pseudo. aerug. VAD12-7-7. The note with it: Pseudomonas aeruginosa. The text has this:
(§1) They show activity when tested by well-recognized in vitro antibacterial screening procedures.

The next experiment deals with Pseudo. aerug. No. 28. The following applies: Pseudomonas aeruginosa.
Description: as §1

A further experiment deals with Pseudo. aerug. 130. The note with it: Pseudomonas aeruginosa, Pseudo. aerug. 130, gentamicin resistant.
Description: as §1

A further experiment relates to Serr. marcescens IMM-5. The note with it: Serratia marcescens, IMM5.
Description: as §1

The next experiment relates to Pseudo. aerug. Aquilar. The note with it: Pseudomonas aeruginosa, butirosin resistant.
Description: as §1

In the next experiment the test system is Klebs. pneumoniae MGH-1. The following applies: Klebsiella pneumoniae, MGH1.
Description: as §1

The next experiment deals with Entero. cloacae IMM-50. The following applies: Enterobacter cloacae, IMM50.
Description: as §1

The subject of a further experiment is Esch. coli JR-76.2. The following applies: Escherichia coli, JR76.2.
Description: as §1

The test system of a further experiment is Staph aureus S18713. The following applies: Staphylococcus aureus, Staph aureus S18713, butirosin resistant.
Description: as §1

The test system of the next experiment is Pseudo. aerug. G-76. The following applies: Pseudomonas aeruginosa, Pseudo. aerug. G-76, butirosin and gentamicin resistant.
Description: as §1

Another experiment relates to Pseudo. aerug. 733. The following applies: Pseudomonas aeruginosa.
Description: as §1

The subject of another experiment is Pseudo. aerug. UI-18. The note with it: Pseudomonas aeruginosa.
Description: as §1

The subject of a further experiment is Pseudo. aerug. LA-3399. The following applies: Pseudomonas aeruginosa.
Description: as §1

A further experiment has as its system Pseudo. aerug. 58.38. The following applies: Pseudomonas aeruginosa.
Description: as §1

In another experiment the test system is Pseudo. aerug. 74C-1. The following applies: Pseudomonas aeruginosa.
Description: as §1

SMILES strings stand for the structures. Converted amounts (≈) assume the structure as drawn.

One may read the MIC as the least concentration at which growth counts as inhibited.

Take `NCC[C@H](O)C(=O)N[C@@H]1C[C@H](N)[C@@H](O[C@H]2O[C@H](CN)C[C@H](O)[C@H]2N)[C@H](O[C@@H]2O[C@H](CN)[C@H](O)[C@H]2O)[C@H]1O` [I carbonate, 5"-amino-4',5"-dideoxybutirosin A]: the MIC against Pseudo. aerug. VAD12-7-7 worked out at 1.6 mg/L (≈ 2.97 µM); with Pseudo. aerug. No. 28 it was 3.1 mg/L (≈ 5.76 µM); against Pseudo. aerug. 130 it was 6.3 mg/L (≈ 11.7 µM); with Serr. marcescens IMM-5 it was 12.5 mg/L (≈ 23.2 µM); in the experiment with Pseudo. aerug. Aquilar, 25 mg/L (≈ 46.4 µM); with Klebs. pneumoniae MGH-1 it was 6.3 mg/L (≈ 11.7 µM). The MIC was 6.3 mg/L (≈ 11.7 µM) in the experiment on Entero. cloacae IMM-50; 25 mg/L (≈ 46.4 µM) in the experiment on Esch. coli JR-76.2; 6.3 mg/L (≈ 11.7 µM) with Staph aureus S18713; 12.5 mg/L (≈ 23.2 µM) against Pseudo. aerug. G-76; 6.3 mg/L (≈ 11.7 µM) in the experiment on Pseudo. aerug. 733; 6.3 mg/L (≈ 11.7 µM) in the experiment on Pseudo. aerug. UI-18. Further, the minimum inhibitory concentration (MIC) in the experiment with Pseudo. aerug. LA-3399 was found to be 12.5 mg/L (≈ 23.2 µM); against Pseudo. aerug. 58.38, 6.3 mg/L (≈ 11.7 µM); against Pseudo. aerug. 74C-1 it was 3.1 mg/L (≈ 5.76 µM).

The values are drawn from patent publication US3983102A, “Process for preparing 5"-amino-4',5"-dideoxybutirosin A” (Parke, Davis & Company, priority 1975, dated 1976).
